Results on 8 compounds are retold here after PMC3693772, “Protein expression, biochemical pharmacology of signal transduction, and relation to intraocular pressure modulation by bradykinin B2 receptors in ciliary muscle” (Molecular Vision, 2013).

The test system of assay [1] is B2-receptor, primary h-CM cells. The class given is cell-based, human. The method, then: Functional assay measuring [Ca^2+]i mobilization in cultured human ciliary muscle cells
Accordingly, we isolated h-CM cells and studied BK-induced [Ca^2+]i mobilization in these cells using the Fluorescence Imaging Plate Reader (FLIPR; Molecular Devices, Menlo Park, CA) instrument as previously described. Low passage h-CM cells were seeded at a density of about 20,000 cells/well in a black-wall, 96-well tissue culture plates and grown for 2 days. On the day of the experiment, one vial of FLIPR Calcium Assay Kit dye (Molecular Devices) was resuspended in 50 ml of a FLIPR buffer consisting of Hank’s Balanced Salt Solution (HBSS), 20 mM HEPES, and 2.5 mM probenecid, pH 7.4. Cells were loaded with the calcium-sensitive dye (proprietary to Molecular Devices) by adding an equal volume (50 µl) to each well of the 96-well plate and incubated with dye for 1 h at 23 °C. Then the test compound plate and the cell plate were placed in the FLIPR instrument, and an aliquot (25 μl) of the BK solution (positive control) or the test compound was added to the existing 100 μl dye-loaded cells at a dispensing speed of 50 μl/sec. Fluorescence data were collected in real time over a period of time. Responses were measured as peak fluorescence intensity minus basal and where appropriate are expressed as a percentage of a maximum BK-induced response [Emax %]. When antagonist studies were performed, the latter were incubated with the cells for 15 min before BK was added. When the effects of various cellular signaling inhibitors/treatments were investigated, they were added to the cells 5 min before BK was added. The potencies (EC50 or IC50 values) of agonists and antagonists were determined from concentration-response curves using a sigmoidal-fit, iterative algorithm of a computer program designed to automatically fit the raw data (ActivityBase, IDBS, Surrey, UK). […] Concentration-response curves and other plots for the manuscript were constructed using Origin® software package (Microcal® Software Inc., Northampton, MA).
Figure 3 Concentration-dependent effect of bradykinin (BK) on mobilization of [Ca^2+]i in normal, primary h-CM cells. Fluorescent dye-loaded h-CM cells were exposed to different concentrations of BK and the changes in relative fluorescence units (RFUs), indicating changes in levels of [Ca^2+]i, monitored over time (Figure 3A). The peak responses to various BK concentrations were then used to construct the concentration-response curves. Other BK-related peptides were tested in the same manner and their concentration-response curves plotted (e.g., data from a representative experiment; Figure 3B).

Another assay relates to cynomolgus monkey eyes. To be noted: cabergoline 50 µg topical, ocular hypertensive eyes, nine monkeys, ref Thirty ([30]), cited from earlier work. From the text:
Table 4 Effects of topical ocular bradykinin on IOP of Cynomolgus monkey eyes | column: Monkey IOP changes after topical ocular dosing / IOP (mmHg); Monkey IOP changes after topical ocular dosing / IOP change (% of control)

The subject of assay [2] is h-CM cells. The class given is cell-based, human. To be noted: 1 h at 37 °C; enzyme immunoassay; mean ± SEM, 3 to 6 experiments; read-out: PGE2 production in h-CM cells (EC50).
For assay [3], the system named is h-CM cells. The assay is classed as cell-based, human. To be noted: 1 h at 37 °C; enzyme immunoassay; mean ± SEM, 3 to 6 experiments; read-out: PGF2α production in h-CM cells (EC50).
A further assay has as its system primary h-TM cells. The class given is cell-based, human. To be noted: preliminary data, values rounded-off, read-out: Agonist potency at stimulating [Ca^2+]i mobilization in primary h-TM cells (EC50).
Assay [4] relates to CHO-B2 cells. The class given is cell-based, Chinese hamster ovary cells, human cloned B2 receptor. As to conditions: 1 h at 37 °C; enzyme immunoassay; mean ± SEM, 3 to 6 experiments; read-out: PGE2 production in CHO-B2 cells (EC50).
The subject of assay [5] is CHO-B2 cells. The assay is classed as cell-based, Chinese hamster ovary cells, human cloned B2 receptor. As to conditions: 1 h at 37 °C; enzyme immunoassay; mean ± SEM, 3 to 6 experiments; read-out: PGF2α production in CHO-B2 cells (EC50).
Assay [6] concerns CHO-B2 cells (human cloned B2 receptor). The assay is classed as cell-based, Chinese hamster ovary cells. To be noted: for EC50: 1 h at 37 °C, enzyme immunoassay, mean ± SEM, 3 to 6 experiments, read-out: Total PGs production in CHO-B2 cells (EC50); for PG production/release by compound alone, CHO-B2 cells: compound on its own.
The test system of assay [7] is CHO-B2 cells. To be noted: read-out: PGD2 production in CHO-B2 cells (EC50), 1 h at 37 °C, enzyme immunoassay. The method, then:
Measurement of prostaglandins in human ciliary muscle and Chinese hamster ovary cells expressing B2 receptors
This involved stimulating h-CM cells and CHO-B2 cells with various concentrations of test peptides and measuring the release of various PGs in the extracellular medium. The concentration-dependent effects of these peptides on total PGs, and specifically PGE2, PGF2α, and PGD2 release, were studied. Cells were grown as a monolayer in a 24-well plate (precoated with fibronectin) to confluence and subsequently serum-starved overnight before the experiment. On the day of the experiment, just before the drug was added, the wells were aspirated completely, and 990 µl basal medium and 10 µl 100× series of concentrations of the different peptide agonists were added to achieve the desired final concentrations of each compound (e.g., 0.1 nM to 10 µM). […] At the end of the incubation period, the cellular supernatants were collected and stored at −80 °C or used immediately to determine the PG content. Cell supernatants were tested for total PG levels and sub-species of PGs (PGE2, PGF2α, and PGD2) using specific competitive enzyme immunoassays (Cayman Chemical Co., Ann Arbor, MI) as directed in the manufacturer’s recommended protocols using the supplied standards and reagents. The limits of detection for various PGs were as follows: total PGs=29 pg/ml; PGE2=15 pg/ml; PGF2α=9 pg/ml; PGD2=200 pg/ml.

The test system of another assay is primary h-CM cells. The assay is classed as cell-based, human. As to conditions: for EC50: 1 h at 37 °C, enzyme immunoassay, mean ± SEM, 3 to 6 experiments, read-out: Total PGs production in h-CM cells (EC50).

Where two headings read alike, the source gives them in different places.

Regarding `C/C=C(/C)C(=O)O[C@H]1C(C)=C2[C@H]([C@@H]1OC(=O)CCCCCCC)[C@@](C)(OC(C)=O)C[C@H](OC(=O)CCC)[C@@]1(O)[C@H]2OC(=O)[C@@]1(C)O` [thapsigargin], the “Reduction of BK-mobilized [Ca^2+]i levels vs control cells” value in assay [1] (thapsigargin 0.1 or 30 µM preincubation) was greater than 50%. Besides, the “Effect on response to BK after thapsigargin” value in assay [1] (thapsigargin pretreatment) is reported as “blunted but not abolished”. In addition, the “Effect on BK-induced [Ca^2+]i rise in presence of EGTA” value in assay [1] (thapsigargin, 1 mM EGTA included) was “concentration-dependently reduced”.

For the compound ryanodine, the “Effect on BK-induced [Ca^2+]i levels” value in [1] (ryanodine 1–30 µM, data not shown) was “did not enhance but instead slightly reduced the effect of BK”.

In the case of `C=CCN1C[C@H](C(=O)N(CCCN(C)C)C(=O)NCC)C[C@@H]2c3cccc4[nH]cc(c34)C[C@H]21` [Cabergoline, cabergoline], in the assay on cynomolgus monkey eyes (0 h), the IOP is listed as 34.7±3.0 mmHg. For the same compound, the “IOP change (% of control)” value with cynomolgus monkey eyes (0 h) is 0%; with cynomolgus monkey eyes (1 h), -16.0%; in the assay on cynomolgus monkey eyes (3 h), -30.4%; in the assay on cynomolgus monkey eyes (7 h), -28.8%; in the assay on cynomolgus monkey eyes (24 h) it was -27.3%.

With `N=C(N)NCCC[C@H](N)C(=O)N1CCC[C@H]1C(=O)N1CCC[C@H]1C(=O)NCC(=O)N[C@@H](Cc1ccccc1)C(=O)N[C@@H](CO)C(=O)N1CCC[C@H]1C(=O)N[C@@H](Cc1ccccc1)C(=O)O` [Des-Arg^9-BK], the concentration giving a half-maximal response (EC50) with h-CM cells [2] is greater than 1000 nM; in the assay with h-CM cells [3], greater than 1000 nM; in the assay on primary h-TM cells, 3600 nM; in the assay with CHO-B2 cells [4], greater than 100 nM; in the assay with CHO-B2 cells [5], greater than 100 nM; in assay [6] it was greater than 100 nM. Further, the EC50 is greater than 100 nM in the assay on CHO-B2 cells [7] (one bound printed) and greater than 1000 nM in the assay with primary h-CM cells.

As for `O=C(O)CN(CCOCCOCCN(CC(=O)O)CC(=O)O)CC(=O)O` [EGTA, ethylene glycol tetraacetic acid], the “Effect on BK-induced [Ca^2+]i mobilization” value is “complete abolition of the response to BK” in assay [1] (EGTA 1 mM, 5 min preincubation); “totally abolished” in assay [1] (EGTA 1–2 mM); “abolished” in assay [1] (EGTA 1–2 mM, listed as ethylene glycol tetraacetic acid).

With `CCCC[P+](CCCC)(CCCC)Cc1ccc(NC(=O)[C@H](Cc2ccc3ccccc3c2)NC(=NC2CCCCC2)NC2CCCCC2)cc1.[Cl-]` [(S)-WIN-64338], the concentration giving a half-maximal response (EC50) is greater than 10000 nM with h-CM cells [2]; greater than 10000 nM with h-CM cells [3]; greater than 10 nM in the assay on CHO-B2 cells [4]; greater than 10 nM in the assay on CHO-B2 cells [5]; greater than 10 nM in assay [6]; greater than 10000 nM in the assay with primary h-CM cells. The entries for the “Effect on BK-induced total PGs production, CHO-B2 cells” value in assay [6] and in [6] (listed as WIN-64338) were “blocked” and “potent antagonism”, respectively. Moreover, the results for the “PG production/release by compound alone, CHO-B2 cells” value in assay [6] and in assay [6] (listed as WIN-64338) were “failed to influence PG production” and “did not induce PGs release”, respectively. For the same compound, in the assay with primary h-CM cells (compound on its own, listed as WIN-64338), the “PG production/release by compound alone, h-CM cells” value was “did not induce PGs release”. Besides, the “Effect on BK-induced total PGs production, h-CM cells” value with primary h-CM cells is given as “blocked”; in the assay with primary h-CM cells (listed as WIN-64338), “potent antagonism”.

Turning to `CNCC(=O)N[C@@H](CCCNC(=N)N)C(=O)N1CCC[C@H]1C(=O)N1CCC[C@H]1C(=O)NCC(=O)N[C@@H](Cc1ccccc1)C(=O)N[C@@H](CO)C(=O)N1CCC[C@H]1C(=O)N[C@H](Cc1ccccc1)C(=O)O` [Sar-[D-Phe^9]-Des-Arg^9-BK], the EC50 in assay [6] was greater than 1 nM; in the assay with primary h-CM cells it was greater than 1000 nM.

With `N=C(N)NCCC[C@H](NC(=O)[C@H](Cc1ccccc1)NC(=O)[C@@H]1CCCN1C(=O)[C@H](CO)NC(=O)[C@H](Cc1ccccc1)NC(=O)CNC(=O)[C@@H]1C[C@@H](O)CN1C(=O)[C@@H]1CCCN1C(=O)[C@@H](N)CCCNC(=N)N)C(=O)O` [Hyp^3-BK], the concentration giving a half-maximal response (EC50) in the assay with h-CM cells [2] was found to be 10.1 ± 4.2 nM; in the assay on h-CM cells [3] it was 9.2 ± 5.3 nM; in the assay on primary h-TM cells it was 1 nM; in the assay with CHO-B2 cells [4], 0.0307 ± 0.0185 nM; in the assay on CHO-B2 cells [5], 0.0593 ± 0.0373 nM; in assay [6], 0.0683 ± 0.0367 nM. Further, the EC50 in assay [1] (primary h-CM cells, FLIPR, Calcium Assay Kit dye, pH 7.4, 23 °C dye loading, mean ± SEM, n=3-7, read-out: Agonist potency at stimulating [Ca^2+]i mobilization in primary h-CM cells (EC50)) stood at 2.2 ± 0.2 nM; in the assay with CHO-B2 cells [7] (first of two values in cell) it was 0.0304 nM; in the assay with CHO-B2 cells [7] (second of two values in cell), 0.0582 nM; in the assay on primary h-CM cells it was 10.9 ± 6.1 nM.
